The source of these data is the METLIN SMRT retention time set (Domingo-Almenara et al. 2019).

The nature of the data set: gradient 5% acetonitrile 3 min, to 50% in 2 min, to 85% in 15 min, held 3 min, 100 µL/min. The settings on record: column: Zorbax Extend-C18 2.1 x 50 mm; eluents: water / acetonitrile, 0.1% formic acid. In a few lines:
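The mobile phases were water and acetonitrile, each with 0.1% formic acid, pumped at 100 μL/min through a Zorbax Extend-C18 column (2.1 × 50 mm, 1.8 μm). Pure standards were injected as mixtures of ~100 molecules and detected by a quadrupole time-of-flight mass spectrometer in positive and negative ionization mode. Retention time came from computationally picked adduct peaks, each inspected by hand.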
Compound `CCNC(=O)N1CCN(CCCC(c2ccc(F)cc2)c2ccc(F)cc2)CC1` displayed an RP-LC retention time of 766 s.
The result for `O=C(NCCC1=CCCCC1)C1CCCN(c2nccn3nc(-c4ccccc4Cl)cc23)C1` (stereo not drawn) reads 1090 s; that for `Cc1ccccc1Nc1c(-c2ccc(N(C)C)cc2)nc2c(C)cccn12`, 798 s.
The result for `O=C1Nc2ccccc2OC1C(=O)N1CCN(c2ccc(Cl)cc2)CC1` (stereo not drawn) reads 889 s.
With `CCC(=O)N(C1CCOCC1)C1CCN(S(=O)(=O)c2cc(C)ccc2C)CC1` the figure was 908 s; with `Cc1ccc(-c2nnc(Cc3nc(-c4ccc(Br)cc4)no3)o2)cc1C`, 1230 s; with `CCC1CN2C=NC(N3CCN(C(=O)Nc4cc(C)ccc4OC)CC3)=CC2=N1` (stereo not drawn), 658 s.
`O=C(Cn1ccn2nc(-c3ccccc3)c(CO)c2c1=O)NCCC1=CCCCC1`: the RP-LC retention time is 857 s.
With `O=C(NCCC1CCN(S(=O)(=O)c2ccccc2)CC1)Nc1ccccc1` the figure was 856 s; with `CC(C)c1noc(-c2ccnc(-n3cnc(C(=O)NCc4ccco4)c3)c2)n1`, 809 s; with `COc1cc(Cl)ccc1C(=O)N1CCC(OC2CCN(C)CC2)CC1`, 606 s.
With `O=C(NC1CC1)c1ccc(OCC2CCN(C(=O)c3ccc(C(F)(F)F)cc3)CC2)cc1` the figure was 899 s.
With `CCC(=O)CCCCC[C@@H]1NC(=O)[C@H]2CCCCN2C(=O)[C@H]([C@H](C)CC)NC(=O)[C@H](Cc2cn(OC)c3ccccc23)NC1=O` the figure was 965 s; with `CCOc1ccccc1NC(=O)c1cnc(-c2ccccc2)nc1-c1ccncc1`, 978 s; with `CC(C)c1noc(-c2ccnc(-n3cnc(C(=O)NC(C)c4ccccc4)c3)c2)n1` (stereo not drawn), 1000 s.
`COc1ccc(CCN2CC(=O)N(c3ccc(C)c(C)c3)[C@@H]3CS(=O)(=O)C[C@@H]32)cc1` gave an RP-LC retention time of 886 s.
With `CC(C)(C)n1nnnc1C1CC2(CCOCC2)C(=O)N1Cc1ccc(F)cc1F` (stereo not drawn) the figure was 809 s.
Compound `COC1CCC12CCN(C(=O)C1CCOCC1)CC2` (stereo not drawn) registered an RP-LC retention time of 636 s.
With `CCOC(=O)c1c(C)oc2nc(C)nc(NCCCc3ccccc3)c12` the figure was 1280 s.
Compound `CCOc1ccc(C2Cn3nnc(-c4nc(-c5ccccc5Br)no4)c3CO2)cc1` (stereo not drawn) showed an RP-LC retention time of 1230 s.
As to `COc1ccccc1-c1noc(Cn2c(=O)n(Cc3ccccc3Cl)c(=O)c3sccc32)n1`, the RP-LC retention time was found to be 1130 s.
With `COc1ccc(CNC(=O)c2cc3c(s2)N(C)CCC3)c(OC)c1` the figure was 926 s.
Take `Cc1ccn2cc(-c3ccc(NS(=O)(=O)c4cccc([N+](=O)[O-])c4)cc3)nc2n1`: the RP-LC retention time was 662 s.
With `O=S(=O)(CCc1noc(-c2ccc3c(c2)OCO3)n1)c1ccccc1`, the RP-LC retention time was found to be 899 s.
The result for `CN(C)c1cccc(C(=O)N2CCN(C(=O)c3nnn4c3COC(c3ccc(Cl)cc3)C4)CC2)c1` (stereo not drawn) reads 881 s.
With `CCc1ccc(C2=C(C)C(N3CCCN(C(=O)CCC(C)C)CC3)=NS2(=O)=O)cc1` the figure was 974 s.
The result for `O=C(Nc1ccc2c(c1)OCO2)C1CCN(C(=O)c2cccc(F)c2)CC1` reads 753 s; that for `CCC(=O)Nc1ccc(CCc2nc3ccc(C(=O)NC(C)Cc4ccco4)cc3[nH]2)cc1` (stereo not drawn), 630 s.
As for `CCn1cc(C(=O)Nc2ccc(F)c(C)c2)c2cccnc21`, the RP-LC retention time is 896 s.
With `CNC(=O)C1CN(C(=O)Cc2cccc(Cl)c2)CC12CCCC2` (stereo not drawn) the figure was 740 s.
The result for `O=C1CCCc2cc(S(=O)(=O)NCCCN3CCN(c4ccccc4)CC3)ccc2N1` reads 576 s; that for `COc1ccc(-c2noc(-c3ccc(N4CCN(c5ncccn5)CC4)nc3)n2)cc1`, 1150 s.
With `Cc1cc(N2CCN(c3ccccc3)CC2)nc2ccccc12` the figure was 710 s; with `CCc1ccc(S(=O)(=O)N2CCC(C(=O)NCc3csc(-c4ccccc4)n3)CC2)cc1`, 999 s.
Compound `Cc1cc(N)c2cc(NC(=O)/C=C\c3ccccc3Cl)ccc2n1` had an RP-LC retention time of 751 s.
With `CCN(CC)CCCNC(=O)c1nnc(-c2ccc(S(=O)(=O)N3CCOCC3)cc2)o1` the figure was 600 s; with `COc1ccc(CN(C)Cc2cc(=O)c3cc(C)ccc3[nH]2)cc1`, 603 s; with `Cc1ccc(NC(=O)CSc2nccc(N3CCN(c4cc(C)ccc4C)CC3)n2)c(F)c1`, 1110 s.
The result for `CN(C)C1(CC2CC2)CCN(C(=O)c2cccs2)CC1` reads 584 s; that for `Cc1ccnc(NC(=O)C2CCCN(c3ncnc4c3nc3n4CCCCC3)C2)c1` (stereo not drawn), 643 s; that for `CCc1noc(NC(C)=O)c1-c1ccc(OC)c(S(=O)(=O)Nc2ccc(F)cc2Cl)c1`, 841 s.
With `COC(=O)c1c(NCc2c(C)noc2C)c2cccc(Cl)c2[nH]c1=O` the figure was 706 s.
In the case of `COc1ccc(Cc2nc(-c3ccc4oc(C)nc4c3)no2)cc1OC`, the RP-LC retention time was 892 s.
`CCN1c2ccc(C)cc2C(=O)NC12CCN(C(=O)c1ccc(C)cc1C)CC2` yielded an RP-LC retention time of 902 s.
With `O=C(Cn1cnc2nc(N3CCC(C(=O)NC4CC4)CC3)sc2c1=O)NC1CCc2ccccc21` (stereo not drawn) the figure was 670 s; with `Cc1csc(-c2cc(S(=O)(=O)NC3CC3)cn2CC(=O)N2CCCCC2)n1`, 841 s; with `CN1C(=O)C(CC(=O)NCC2CCCCC2)Sc2ncccc21` (stereo not drawn), 761 s.
With `CCOC(=O)c1ccc(N2C=C(C#N)S(=O)(=O)c3ccc(F)cc32)cc1` the figure was 972 s; with `Cc1ccc(Sc2nccnc2N2CCCC(C(=O)N3CCN(c4ccccc4)CC3)C2)cc1` (stereo not drawn), 1220 s.
The compound `O=C1CCC2(C(=O)N3CCN(c4ccccn4)CC3)CCC=C2N1C1CCCC1` (stereo not drawn) had an RP-LC retention time of 579 s.
With `O=C(NCC1CCN(C(=O)Oc2ccccc2)CC1)c1cnccn1`, the RP-LC retention time was found to be 689 s.
With `Cc1nc(-c2nnn(Cc3ccccc3)c2C)no1` the figure was 836 s.
The result for `O=C(c1ccco1)N1CCN(c2nc(N3CCOCC3)c3n[nH]nc3n2)CC1` reads 598 s; that for `CS(=O)(=O)Nc1ccc(C2(C(=O)NCCC3=CCCCC3)CCCCC2)cc1`, 1030 s.
The result for `CCOC(=O)c1ccc(NC(=O)CN2CCN(Cc3ccccc3)C(=O)C2=O)cc1` reads 766 s; that for `COC(=O)c1ccc(-c2nc3cnccn3c2Nc2ccc(C)c(Br)c2)cc1`, 1040 s; that for `COc1ccc(-c2cnc(S(=O)(=O)CC(=O)NCc3ccccc3Cl)n2C)cc1`, 819 s.
For the compound `COc1ccc(N(Cc2nc3nc(C)c(Cl)c(C)n3n2)C(=O)c2ccco2)cc1`, the RP-LC retention time worked out at 824 s.
The result for `Cc1sc(NC(=O)c2cccc(Cl)c2)nc1-c1ccc2c(c1)NC(=O)C(C)O2` (stereo not drawn) reads 1040 s; that for `O=C1CCCN1CCCNc1nc(C2CC2)nc2c1CCC2`, 581 s.
With `CCOC(=O)COc1ccccc1C1CC(c2cccs2)=NN1C(=O)c1ccco1` (stereo not drawn) the figure was 941 s.
The result for `CC1CCCN(C(=O)C2CCN(S(=O)(=O)c3ccc4c(c3)CCCC(=O)N4)CC2)C1` (stereo not drawn) reads 731 s; that for `Cc1ccc(Cn2cc(-c3noc(-c4ccc(N(C)C)cc4)n3)nn2)cc1`, 1070 s; that for `CSc1nc(NCCN(C)C)c(C#N)c(-c2ccccc2)n1`, 642 s.
Take `COc1cccc(N2CCN(C(=O)C3CCN(c4cncnc4N(C)C)CC3)CC2)c1`: the RP-LC retention time is 648 s.
The result for `CC(C)(C)n1ncc2c(=O)n(NC(=O)c3cc(=O)c4ccccc4o3)cnc21` reads 713 s; that for `Cc1ccc(S(=O)(=O)N2CCn3c(nn(CC4CC4)c3=O)C2)c(C)c1`, 809 s.
The result for `O=C(c1cn(-c2cc(N3CCSCC3)ncn2)cn1)N1CC=C(c2ccccc2)CC1` reads 992 s; that for `COc1ccc(NC(=O)N2CCN(c3nc4ccccc4n3C)CC2)cc1OC`, 610 s.
The result for `COc1ccc(-c2noc(-c3nc(-c4cc(OC)c(OC)c(OC)c4)no3)n2)cc1` reads 1080 s.
The compound `COc1ccc(-c2cn3c(CC(=O)Nc4ccccc4F)csc3n2)cc1OC` registered an RP-LC retention time of 724 s.
The result for `O=C(CSc1nccn1-c1ccc(C(=O)NCc2cccs2)cc1)NC1CCCC1` reads 644 s; that for `O=C(CCc1c[nH]c2ccccc12)N1CC(n2ccnc2)C1`, 588 s.
With `CCn1c(=O)n(CC(=O)N2CCN(c3ccccn3)CC2)c(=O)c2cnc(-c3ccccc3)nc21` the figure was 697 s; with `CCOC(=O)c1ccc(NC(=O)N2CCCC2c2c(C)noc2C)cc1` (stereo not drawn), 801 s.
With `COCCCNC(=O)Cn1nc(-n2c(C)ccc2C)c2c(C)cc(C)nc21` the figure was 874 s; with `O=C(c1ccc2ccccc2n1)N1CCOc2ccc(N3CCOCC3)cc2C1`, 784 s; with `CCc1nc2c(c(=O)n1CC(=O)Nc1ccc(C)cc1)CN(Cc1ccccc1)CC2`, 672 s.
